Experimental data reported in the supplement of paper PMC10307832.

Experiments:
Experiment in all cases: relative viability (nuclei count vs DMSO), 5 days (fraction); higher = more cells survive
AZD5582 + Pictilisib = compound: C[C@@H](C(=O)N[C@@H](C1CCCCC1)C(=O)N2CCC[C@H]2C(=O)N[C@@H]3[C@@H](CC4=CC=CC=C34)OCC#CC#CCO[C@@H]5CC6=CC=CC=C6[C@@H]5NC(=O)[C@@H]7CCCN7C(=O)[C@H](C8CCCCC8)NC(=O)[C@H](C)NC)NC [AZD5582] + CS(=O)(=O)N1CCN(Cc2cc3nc(-c4cccc5[nH]ncc45)nc(N4CCOCC4)c3s2)CC1 [Pictilisib] (partner 1 µM)
How it was run: (§1)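 Values are medians from duplicate plates. Each reflects relative viability, defined as the nuclei count of treated wells over that of vehicle wells. Lung cancer cell lines in 1536-well plates were pin-tool dosed one day after seeding with one drug alone or with a fixed anchor-drug dose plus five library-drug doses (not always all listed) in √10 steps, then fixed, stained and imaged at 4× after 5 days.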

AZD5582 + Lapatinib = compound: C[C@@H](C(=O)N[C@@H](C1CCCCC1)C(=O)N2CCC[C@H]2C(=O)N[C@@H]3[C@@H](CC4=CC=CC=C34)OCC#CC#CCO[C@@H]5CC6=CC=CC=C6[C@@H]5NC(=O)[C@@H]7CCCN7C(=O)[C@H](C8CCCCC8)NC(=O)[C@H](C)NC)NC [AZD5582] + CS(=O)(=O)CCNCc1ccc(-c2ccc3ncnc(Nc4ccc(OCc5cccc(F)c5)c(Cl)c4)c3c2)o1 [Lapatinib] (partner 2 µM)
How it was run: as §1

Temozolomide + Alpelisib = compound: Cn1nnc2c(C(N)=O)ncn2c1=O [Temozolomide] + Cc1nc(NC(=O)N2CCC[C@H]2C(N)=O)sc1-c1ccnc(C(C)(C)C(F)(F)F)c1 [Alpelisib] (partner 2 µM)
How it was run: as §1

Temozolomide + Lapatinib = compound: Cn1nnc2c(C(N)=O)ncn2c1=O [Temozolomide] + CS(=O)(=O)CCNCc1ccc(-c2ccc3ncnc(Nc4ccc(OCc5cccc(F)c5)c(Cl)c4)c3c2)o1 [Lapatinib] (partner 2 µM)
How it was run: as §1

| Cell Line | relative viability (AZD5582 + Pictilisib; first compound 0.001581 µM) | relative viability (AZD5582 + Pictilisib; first compound 0.005 µM) | relative viability (AZD5582 + Pictilisib; first compound 0.01581 µM) | relative viability (AZD5582 + Pictilisib; first compound 0.05 µM) | relative viability (AZD5582 + Lapatinib; first compound 0.001581 µM) | relative viability (AZD5582 + Lapatinib; first compound 0.005 µM) | relative viability (AZD5582 + Lapatinib; first compound 0.01581 µM) | relative viability (AZD5582 + Lapatinib; first compound 0.05 µM) | relative viability (Temozolomide + Alpelisib; first compound 0.2 µM) | relative viability (Temozolomide + Alpelisib; first compound 0.6325 µM) | relative viability (Temozolomide + Alpelisib; first compound 2 µM) | relative viability (Temozolomide + Alpelisib; first compound 6.325 µM) | relative viability (Temozolomide + Alpelisib; first compound 20 µM) | relative viability (Temozolomide + Lapatinib; first compound 0.2 µM) | relative viability (Temozolomide + Lapatinib; first compound 0.6325 µM) | relative viability (Temozolomide + Lapatinib; first compound 2 µM) | relative viability (Temozolomide + Lapatinib; first compound 6.325 µM) | relative viability (Temozolomide + Lapatinib; first compound 20 µM) |
| --- | --- | --- | --- | --- | --- | --- | --- | --- | --- | --- | --- | --- | --- | --- | --- | --- | --- | --- |
| SK-LU-1 | 0.422 | 0.357 | 0.494 | 0.325 | 0.645 | 0.639 | 0.859 | 0.317 | 1.43 | 0.976 | 0.901 | 0.525 | 0.394 | 1.08 | 0.906 | 0.803 | 0.377 | 0.407 |
| SK-MES-1 | 0.391 | 0.475 | 0.4 | 0.433 | 0.492 | 0.648 | 0.455 | 0.571 | 1.06 | 0.919 | 1.06 | 0.836 | 0.778 | 0.478 | 0.466 | 0.463 | 0.505 | 0.458 |
| SW 1573 | 0.487 | 0.612 | 0.635 | 0.674 | 0.954 | 1.28 | 1.24 | 1.09 | 0.714 | 0.783 | 0.809 | 0.69 | 0.8 | 1.13 | 1.17 | 1.04 | 0.897 | 1.02 |
| UMC-11 | 0.722 | 0.842 | 0.648 | 0.666 | 0.89 | 0.976 | 0.851 | 1.01 | 1.08 | 0.829 | 1.02 | 0.934 | 0.518 | 1.09 | 1.06 | 1.09 | 0.894 | 0.685 |
